In ChEMBL document CHEMBL1148419, “Novel P4 truncated tripeptidyl alpha-ketoamides as HCV protease inhibitors” (Bioorg Med Chem Lett, 2004):
Active and inactive are the calls of the source. The calls are words filed in the database; no cut-off is given here.

Assays:
[1] = tested on: Hepatitis C virus NS3 protease (Hepatitis C virus); experiment: Inhibitory activity against Protease using replicon assay in rats at 50 uM concentration; details: Rattus norvegicus
[2] = tested on: Hepatitis C virus NS3 protease (Hepatitis C virus); experiment: Inhibitory activity against Protease using replicon assay in rats at 50 uM concentration; Not active; details: Rattus norvegicus

Row | Compound | inhibition [1] | inhibition [2]
1 | CCCC(NC(=O)[C@@H]1[C@H]2CCC(F)(F)[C@H]2CN1C(=O)[C@@H](NC(=O)[C@H](O)C(C)C)C(C)C)C(=O)C(=O)NC1CC1 (some centres not stated) | inactive | 
2 | CCCC(NC(=O)[C@@H]1[C@H]2CCC(F)(F)[C@H]2CN1C(=O)[C@@H](NC(=O)OC(C)C)C(C)C)C(=O)C(=O)N[C@@H](C)c1ccccc1 (some centres not stated) | 22% | 
3 | CCCC(NC(=O)[C@@H]1[C@H]2CCC[C@H]2CN1C(=O)[C@@H](NC(=O)OC(C)C)C(C)(C)C)C(=O)C(=O)Nc1ccccc1 (some centres not stated) |  | inactive
4 | CCCC(NC(=O)[C@@H]1[C@H]2CCC[C@H]2CN1C(=O)[C@@H](NC(=O)OC(C)C)C(C)C)C(=O)C(=O)N[C@@H](C)c1ccccc1 (some centres not stated) | 7% | 

Continued, values first:

Row | inhibition [1] | inhibition [2] | Compound
5 |  | inactive | CCCC(NC(=O)[C@@H]1[C@H]2CCC[C@H]2CN1C(=O)[C@@H](NC(=O)[C@H](O)C(C)C)C(C)C)C(=O)C(=O)NC1CC1 (some centres not stated)
6 | 51% |  | CCCC(NC(=O)[C@@H]1[C@H]2CCC(F)(F)[C@H]2CN1C(=O)[C@@H](NC(=O)OC(C)C)C(C)(C)C)C(=O)C(=O)N[C@@H](C)c1ccccc1 (some centres not stated)
7 |  | inactive | CCCC(NC(=O)[C@@H]1[C@H]2CCC[C@H]2CN1C(=O)[C@@H](NC(=O)[C@H](O)C(C)C)C(C)C)C(=O)C(=O)Nc1ccccc1 (some centres not stated)
